Reference: ChEMBL document CHEMBL1201862, “PubChem BioAssay data set” (2004)
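Compound exposure: 48 hours, 5 concentrations, 96-well plates. GI50: concentration for 50% inhibition of growth.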 Activity calls are given as the source filed them. Cut-off read from the data, not from the text of the source: active = GI50 up to about 1.1 µM and inactive = higher.

What was measured:
Experiment in all cases: DTP human tumour cell line panel, 48 h
HL-60 = system: HL-60
LOX IMVI = system: LOX IMVI
786-0 = system: 786-0
CCRF-CEM = system: CCRF-CEM
HCT-116 = system: HCT-116
RPMI-8226 = system: RPMI-8226
SN12C = system: SN12C
SW-620 = system: SW-620
UACC-62 = system: UACC-62
NCI-H522 = system: NCI-H522
U-251 = system: U-251
SNB-19 = system: SNB-19
RXF 393 = system: RXF 393
UO-31 = system: UO-31
COLO 205 = system: COLO 205
MDA-N = system: MDA-N
NCI-H226 = system: NCI-H226
KM12 = system: KM12
SF-268 = system: SF-268
OVCAR-8 = system: OVCAR-8
SF-295 = system: SF-295
NCI-H23 = system: NCI-H23
MDA-MB-231 = system: MDA-MB-231
BT-549 = system: BT-549
OVCAR-5 = system: OVCAR-5
A498 = system: A498
K562 = system: K562
OVCAR-3 = system: OVCAR-3
Hs-578T = system: Hs-578T
PC-3 = system: PC-3
DU-145 = system: DU-145
SK-MEL-2 = system: SK-MEL-2
CAKI-1 = system: CAKI-1
HCT-15 = system: HCT-15
SK-MEL-5 = system: SK-MEL-5
HT-29 = system: HT-29
OVCAR-4 = system: OVCAR-4
UACC-257 = system: UACC-257
NCI-H460 = system: NCI-H460
NCI/ADR-RES = system: NCI/ADR-RES
HCC 2998 = system: HCC 2998
SK-OV-3 = system: SK-OV-3
SNB-75 = system: SNB-75
Malme-3M = system: Malme-3M
TK-10 = system: TK-10
EKVX = system: EKVX
IGROV-1 = system: IGROV-1
M14 = system: M14
SR = system: SR
HOP-62 = system: HOP-62
SK-MEL-28 = system: SK-MEL-28
MDA-MB-435 = system: MDA-MB-435
A549 = system: A549
MCF7 = system: MCF7
HOP-92 = system: HOP-92
MOLT-4 = system: MOLT-4
ACHN = system: ACHN
SF-539 = system: SF-539
T47D = system: T47D

Cc1ccnc2nc(-c3cccc4ccccc34)cc(O)c12
GI50 (HL-60): 0.000487 µM (active) | GI50 (LOX IMVI): 0.00713 µM (active) | GI50 (786-0): 0.011 µM (active) | GI50 (CCRF-CEM): 0.00527 µM (active) | GI50 (HCT-116): 0.00542 µM (active) | GI50 (RPMI-8226): 0.00682 µM (active) | GI50 (SN12C): 0.127 µM (active) | GI50 (SW-620): 0.00379 µM (active) | GI50 (UACC-62): 0.00196 µM (active) | GI50 (NCI-H522): 0.00106 µM (active) | GI50 (U-251): 0.00445 µM (active) | GI50 (SNB-19): 0.0147 µM (active) | GI50 (RXF 393): 0.0879 µM (active) | GI50 (UO-31): 0.0188 µM (active) | GI50 (COLO 205): 0.0177 µM (active) | GI50 (MDA-N): 0.000104 µM (active) | GI50 (NCI-H226): 0.0336 µM (active) | GI50 (KM12): 0.0183 µM (active) | GI50 (SF-268): 0.00867 µM (active) | GI50 (OVCAR-8): 0.0203 µM (active) | GI50 (SF-295): 0.0132 µM (active) | GI50 (NCI-H23): 0.0783 µM (active) | GI50 (MDA-MB-231): 0.149 µM (active) | GI50 (BT-549): 14.1 µM (inactive) | GI50 (OVCAR-5): 0.0516 µM (active) | GI50 (A498): 0.00167 µM (active) | GI50 (K562): 0.000483 µM (active) | GI50 (OVCAR-3): 0.00258 µM (active) | GI50 (Hs-578T): 0.0141 µM (active) | GI50 (PC-3): 0.0113 µM (active) | GI50 (DU-145): 0.035 µM (active) | GI50 (SK-MEL-2): 0.000458 µM (active) | GI50 (CAKI-1): 0.0121 µM (active) | GI50 (HCT-15): 0.00434 µM | GI50 (SK-MEL-5): 0.000991 µM (active) | GI50 (HT-29): 0.00296 µM (active) | GI50 (OVCAR-4): 0.115 µM (active) | GI50 (UACC-257): 23.1 µM (inactive) | GI50 (NCI-H460): 0.0121 µM (active) | GI50 (NCI/ADR-RES): 0.00237 µM (active) | GI50 (HCC 2998): 0.0573 µM (active) | GI50 (SK-OV-3): 0.00471 µM (active) | GI50 (SNB-75): 0.00255 µM (active) | GI50 (Malme-3M): 0.000708 µM (active) | GI50 (TK-10): 0.454 µM (active) | GI50 (EKVX): 0.0272 µM (active) | GI50 (IGROV-1): 0.043 µM (active) | GI50 (M14): 0.00938 µM (active) | GI50 (SR): 0.0007 µM (active) | GI50 (HOP-62): 0.537 µM (active) | GI50 (SK-MEL-28): 0.00395 µM (active) | GI50 (MDA-MB-435): 0.0001 µM (active) | GI50 (A549): 0.019 µM (active) | GI50 (MCF7): 0.0304 µM (active) | GI50 (HOP-92): 0.00123 µM (active) | GI50 (MOLT-4): 0.00989 µM (active) | GI50 (ACHN): 0.0248 µM (active) | GI50 (SF-539): 0.0112 µM (active)

COc1ccc(/C=C2\CCCCCC2=O)cc1
GI50 (LOX IMVI): > 100 µM (inactive) | GI50 (786-0): > 100 µM (inactive) | GI50 (CCRF-CEM): > 100 µM (inactive) | GI50 (HCT-116): > 100 µM (inactive) | GI50 (RPMI-8226): > 100 µM (inactive) | GI50 (SN12C): > 100 µM (inactive) | GI50 (SW-620): > 100 µM (inactive) | GI50 (UACC-62): > 100 µM (inactive) | GI50 (NCI-H522): > 100 µM (inactive) | GI50 (U-251): > 100 µM (inactive) | GI50 (SNB-19): > 100 µM (inactive) | GI50 (RXF 393): > 100 µM (inactive) | GI50 (UO-31): > 100 µM (inactive) | GI50 (COLO 205): > 100 µM (inactive) | GI50 (MDA-N): > 100 µM (inactive) | GI50 (NCI-H226): > 100 µM (inactive) | GI50 (KM12): > 100 µM (inactive) | GI50 (SF-268): > 100 µM (inactive) | GI50 (OVCAR-8): > 100 µM (inactive) | GI50 (SF-295): > 100 µM (inactive) | GI50 (NCI-H23): > 100 µM (inactive) | GI50 (MDA-MB-231): > 100 µM (inactive) | GI50 (BT-549): > 100 µM (inactive) | GI50 (OVCAR-5): > 100 µM (inactive) | GI50 (A498): > 100 µM (inactive) | GI50 (K562): > 100 µM (inactive) | GI50 (OVCAR-3): > 100 µM (inactive) | GI50 (PC-3): > 100 µM (inactive) | GI50 (DU-145): > 100 µM (inactive) | GI50 (SK-MEL-2): > 100 µM (inactive) | GI50 (CAKI-1): > 100 µM (inactive) | GI50 (HCT-15): > 100 µM | GI50 (SK-MEL-5): > 100 µM (inactive) | GI50 (HT-29): > 100 µM (inactive) | GI50 (OVCAR-4): > 100 µM (inactive) | GI50 (UACC-257): > 100 µM (inactive) | GI50 (NCI-H460): > 100 µM (inactive) | GI50 (NCI/ADR-RES): > 100 µM (inactive) | GI50 (HCC 2998): > 100 µM (inactive) | GI50 (SK-OV-3): > 100 µM (inactive) | GI50 (Malme-3M): > 100 µM (inactive) | GI50 (TK-10): > 100 µM (inactive) | GI50 (EKVX): > 100 µM (inactive) | GI50 (IGROV-1): > 100 µM (inactive) | GI50 (M14): > 100 µM (inactive) | GI50 (SR): > 100 µM (inactive) | GI50 (HOP-62): > 100 µM (inactive) | GI50 (SK-MEL-28): > 100 µM (inactive) | GI50 (MDA-MB-435): > 100 µM (inactive) | GI50 (A549): > 100 µM (inactive) | GI50 (MCF7): > 100 µM (inactive) | GI50 (HOP-92): > 100 µM (inactive) | GI50 (MOLT-4): > 100 µM (inactive) | GI50 (T47D): > 100 µM (inactive) | GI50 (ACHN): > 100 µM (inactive) | GI50 (SF-539): > 100 µM (inactive)
